Experimental data taken from patent publication US20180050040A1, “USE OF 4-(4-FLUORO-2-METHOXYPHENYL)-N--1,3,5-TRIAZIN-2-AMINE FOR TREATING LYMPHOMAS” (Bayer Pharma Aktiengesellschaft, priority 2015, published 2018).
pIC50: −log10 of the molar value. “And” between values parts separate entries of the source, which are not always exact repeats. Equal values may be shown once.

Columns and labels:
S-YU = assay: Cell proliferation assay (CellTiter Glo), S-YU with IL-2; format: cell-based; conditions: ATL, after 24 hours of incubation, IL-2 100 IU/mL
Experimental: (§1) The proliferation of all lymphoma cell lines, other than S-YU, in the presence of different concentrations of Compound A′ for 72 h was assessed using CellTiter Glo kits (Promega Corporation, Madison, Wis.). Proliferation of S-YU in the presence of recombinant human interleukin-2 (IL-2) at a final concentration of 100 IU/mL, with different concentrations of Compound A′ for 24 h, was assessed in the same manner. All expressed values were averages of triplicate experiments, and IC50 was calculated using GraphPad Prism 5 (GraphPad Software, San Diego, Calif.) according to the manufacturer's instructions or the MTS software.

Ramos = assay: Cell proliferation assay (CellTiter Glo); format: cell-based; conditions: Homo sapiens, Burkitt's lymphoma, 72 h
Experimental: as §1

Jeko-1 = assay: Cell proliferation assay (CellTiter Glo); format: cell-based; conditions: Homo sapiens; Jeko-1, Mantle cell lymphoma; 72 h
Experimental: as §1

HT = assay: Cell proliferation assay (CellTiter Glo); format: cell-based; conditions: Homo sapiens, DLBCL, GCB subtype, 72 h
Experimental: as §1

DB = assay: Cell proliferation assay (CellTiter Glo); format: cell-based; conditions: Homo sapiens, DLBCL, GCB subtype, 72 h
Experimental: as §1

MJ = assay: Cell proliferation assay (CellTiter Glo); format: cell-based; conditions: ATL, 72 h
Experimental: as §1

MT-1 = assay: Cell proliferation assay (CellTiter Glo); format: cell-based; conditions: MT-1, ATL; 72 h
Experimental: as §1

OCI-LY-19 = assay: Cell proliferation assay (CellTiter Glo); format: cell-based; conditions: Homo sapiens, OCI-LY19; OCI-LY-19, DLBCL, GCB subtype; 72 h
Experimental: as §1

ATN-1 = assay: Cell proliferation assay (CellTiter Glo); format: cell-based; conditions: Homo sapiens; ATN-1, ATL; 72 h
Experimental: as §1

OCI-LY-3 = assay: Cell proliferation assay (CellTiter Glo); format: cell-based; conditions: Homo sapiens, OCI-Ly3; OCI-LY-3, DLBCL, ABC subtype; 72 h
Experimental: as §1

SU-DHL-6 = assay: Cell proliferation assay (CellTiter Glo); format: cell-based; conditions: Homo sapiens; SU-DHL-6, DLBCL, GCB subtype; 72 h
Experimental: as §1

Karpas422 = assay: Cell proliferation assay (CellTiter Glo); format: cell-based; conditions: Homo sapiens, KARPAS-422; Karpas422, Follicular lymphoma; 72 h
Experimental: as §1

KM-H2 = assay: Cell proliferation assay (CellTiter Glo); format: cell-based; conditions: Homo sapiens; KM-H2, Hodgkin lymphoma; 72 h
Experimental: as §1

TL-Om1 = assay: Cell proliferation assay (CellTiter Glo); format: cell-based; conditions: TL-Om1, ATL; 72 h
Experimental: as §1

MT-2 = assay: Cell proliferation assay (CellTiter Glo); format: cell-based; conditions: Homo sapiens, MT2; MT-2, HTLV-1-immortalized cell line; 72 h
Experimental: as §1

TL-SU = assay: Cell proliferation assay (CellTiter Glo); format: cell-based; conditions: HTLV-1-immortalized cell line, 72 h
Experimental: as §1

MT-4 = assay: Cell proliferation assay (CellTiter Glo); format: cell-based; conditions: Homo sapiens, MT4; MT-4, HTLV-1-immortalized cell line; 72 h
Experimental: as §1

SU-DHL-10 = assay: Cell proliferation assay (CellTiter Glo); format: cell-based; conditions: Homo sapiens, SU-DHL10; SU-DHL-10, DLBCL, GCB subtype; 72 h
Experimental: as §1

SU-DHL-8 = assay: Cell proliferation assay (CellTiter Glo); format: cell-based; conditions: Homo sapiens; SU-DHL-8, DLBCL, GCB subtype; 72 h
Experimental: as §1

HBL1 = assay: Cell proliferation assay (CellTiter Glo); format: cell-based; conditions: HBL1, DLBCL, ABC subtype; 72 h
Experimental: as §1

SU-DHL-4 = assay: Cell proliferation assay (CellTiter Glo); format: cell-based; conditions: Homo sapiens; SU-DHL-4, DLBCL, GCB subtype; 72 h
Experimental: as §1

ATL tumor cells (S-YU) [1] = assay: ATL cell-bearing NOG mice treated for 21 days, survival times; format: in vivo
Experimental: (§2) NOD/Shi-scid, IL-2Rγ^null (NOG) mice were purchased from the Central Institute for Experimental Animals (Kanagawa, Japan) and used at between 6-8 weeks of age.
ATL cells from intraperitoneal masses suspended in RPMI-1640 were also inoculated i.p. into another 14 naive NOG mice at 1.0×10^7 cells per mouse. These animals were randomly divided into two groups of seven each for treatment with Compound A′ or vehicle. Compound A′ was formulated in the same manner, and mice were treated by oral application of 12.5 mg/kg Compound A′ or vehicle, once daily for 21 days (7-27 days after ATL cell inoculations). The therapeutic efficacy of Compound A′ was evaluated according to survival times.
(§3) Differences between groups regarding the percentage of ATL cells in mouse liver and bone marrow cell suspensions, and human sIL2R concentrations in mouse sera, were examined using a Mann-Whitney U test. Mouse survival analyses were done by Kaplan-Meier method, and survival curves were compared using the log-rank test. All analyses were performed using SPSS Statistics 17.0 software (SPSS Inc., Chicago, Ill.). In this study, P<0.05 was considered significant.

[2] = system: DLBCL OCI-LY-7 xenografts; assay: In vivo efficacy and tolerability in DLBCL OCI-LY-7 tumour model subcutaneously implanted in NOG mice; conditions: 25 mg/kg/day p.o.
Experimental: The aim of the present experiments was to assess the in vivo efficacy and tolerability of Compound A′ in monotherapy in the DLBCL OCI-LY-7 tumour model subcutaneously implanted in NOG mice.
In vivo efficacy was determined in female NOG mice bearing subcutaneous DLBCL OCI-LY-7 xenografts. Compound A′ was assessed at one dose level in monotherapy. Anti-tumour activity and tolerability of the treated group was assessed using the vehicle control group as a reference.
Mouse strain, sex: NOG, female Animals supplied by: Taconic, Denmark Approximate age at implantation: 5-7 weeks
DLBCL tumour fragments, derived from the OCI-LY-7 cell line, were obtained from xenografts in serial passage in nude mice and placed in PBS containing 10% penicillin/streptomycin. Tumour fragments (one fragment per animal; 3-4 mm edge length) were then subcutaneously implanted in the flank of NOG recipient mice under isofluorane anaesthesia.
At randomisation, the volume of growing tumours was initially determined. […] The result of the randomisation was documented and maintained with the experimental data. Animals not randomised were euthanised. The day of randomisation is designated as day 0 of an experiment.
Vehicle: 80% (m/V) PEC400 in water for injection Compound A′: preparation of a dosing solution (2.5 mg/ml) once weekly by diluting the Compound A′ powder at 0.25% (w/v) in vehicle; storage of the dosing solution at 4° C.; dosing volume 10 ml/kg
Mortality checks were conducted daily during routine monitoring.
Mice were weighed twice a week. Relative body weights of individual mice in % were calculated by dividing the individual body weight on day X (BWX) by the individual body weight on day 0 (BW0) multiplied by 100 according to the formula: […]
Group median relative body weights were calculated as well, considering only the weights of mice that were alive on the day in question.
The tumour volumes were determined by two-dimensional measurement with a caliper on the day of randomisation (day 0) and then twice weekly (i.e. on the same days on which mice were weighed). Tumour volumes were calculated according to the formulas:
Tumour volume=(a×b^2)×0.5
Relative volumes of individual tumours (RTVs) for Day x were calculated by dividing the absolute individual tumour volume on Day x (Tx) by the absolute individual tumour volume of the same tumour on Day 0 (T0) multiplied by 100%:
Anti-tumour activity was evaluated as maximum tumour volume inhibition versus the vehicle control group.
Tumour inhibition for a particular day (T/C in %) was calculated from the ratio of the median RTV values of test versus control groups multiplied by 100.
The minimum (or optimum) T/C % value recorded for a particular test group during an experiment represents the maximum anti-tumour activity for the respective treatment. T/C values were calculated if at least 50% of the randomised animals in a group were alive on the day in question.
Group optimum T/C values (in %) were used for activity rating as follows: […]

ATL tumor cells (S-YU) [3] = assay: ATL cell-bearing NOG mice treated for 18 days, efficacy evaluated 25 days after inoculation; format: in vivo; conditions: 12.5 mg/kg p.o. once daily 18 days
Experimental: as §2
A leukemic cell clone from a patient with ATL, which could be serially transplanted into SCID mice and was designated S-YU as reported previously (Eur J Haematol. 2014; 92(3):219-228), was injected intraperitoneally (i.p.) into NOG mice. Three to four weeks after i.p. injection, NOG mice developed intraperitoneal masses within the mesentery. Cells from these intraperitoneal masses were suspended in RPMI-1640 and inoculated i.p. into healthy NOG mice, which then presented with disease features identical to those of the original mice. ATL tumor cells (S-YU) from the intraperitoneal masses were suspended in RPMI-1640, and 1.0×10^7 cells were inoculated i.p. into each of 16 naive NOG mice. The animals were randomly divided into two groups of eight each for treatment with Compound A′ or vehicle, seven days after ATL cell inoculations. Compound A′ was formulated in 40% PEG400 in water at a final concentration of 2.5 mg/mL. Mice were treated by oral application of 12.5 mg/kg Compound A′ (0.25 mg/100 μL per mouse) or vehicle (100 μL), once daily for 18 days (7-24 days after ATL cell inoculations). Therapeutic efficacy was then evaluated 25 days after ATL cell inoculations.
The concentration of human soluble IL-2 receptor (sIL2R) in mouse serum was measured by enzyme-linked immunosorbent assay (ELISA) using a human sIL2R immunoassay kit (R&D Systems, Minneapolis, Minn.) according to the manufacturer's instructions. All expressed values were averages of triplicate experiments.
as §3

[4] = OCI-LY-7 xenograft-bearing NOG mice, days 0-27
[5] = individual treated NOG mice 1-8, 25 days after inoculation, 12.5 mg/kg

COc1cc(F)ccc1-c1ncnc(Nc2cccc(CS(C)(=N)=O)c2)n1 (single isomer, unassigned; (+)) [Compound A′, (+)-4-(4-Fluoro-2-methoxyphenyl)-N-{3-[(S-methylsulfonimidoyl)methyl]phenyl}-1,3,5-triazin-2-amine]
pIC50 (S-YU): 5.53 | pIC50 (Ramos): 5.96 | pIC50 (Jeko-1): 6.13 | pIC50 (HT): 6.15 | pIC50 (DB): 6.24 | pIC50 (MJ): 6.27 | pIC50 (MT-1): 5.92 | pIC50 (OCI-LY-19): 6.32 | pIC50 (ATN-1): 6.36 | pIC50 (OCI-LY-3): 6.47 | pIC50 (SU-DHL-6): 6.44 | pIC50 (Karpas422): 6.18 | pIC50 (KM-H2): 5.66 | pIC50 (TL-Om1): 6.10 | pIC50 (MT-2): 6.28 | pIC50 (TL-SU): 5.67 | pIC50 (MT-4): 5.85 | pIC50 (SU-DHL-10): 6.22 | pIC50 (SU-DHL-8): 6.21 | pIC50 (HBL1): 6.27 | pIC50 (SU-DHL-4): 6.77 | Toxicity attributable to compound (ATL tumor cells (S-YU) [1]; ATL cell-bearing NOG mice, 12.5 mg/kg p.o. once daily, during the study period): not observed | survival of ATL cell-bearing mice (ATL tumor cells (S-YU) [1]; thirty-eight days after ATL cell inoculation, 12.5 mg/kg p.o. once daily 21 days, n=7): all alive | OCI-LY-7 tumour growth compared to vehicle control group ([2]; Mann-Whitney-Wilcoxon U-test): significantly reduced | Activity Rating ([2]; OCI-LY-7 in NOG mice, days 0-27): ++++ (Complete remission T/C < 5%) | Min. T/C [%] (Day) ([2]; OCI-LY-7 in NOG mice, days 0-27, minimum on day 19, 25 mg/kg/day): 2.6% and 2.6 (19) % | Survival rate [2, 4]: 80% | median BWL (body weight loss) [2, 4]: 17.9% | tolerability profile ([2]; lymphoma xenograft bearing mice): acceptable tolerability profile | percentage of ATL cells (human CD45-positive, CD4-positive, CD8-negative) in bone marrow cell suspension (ATL tumor cells (S-YU) [3]; [5]): 0.01% (4×) and 0.02% (2×) and 0.72% and < 0.01% | percentage of ATL cells (human CD45-positive, CD4-positive, CD8-negative) in liver cell suspension (ATL tumor cells (S-YU) [3]; [5]): 0.9% and 1.6% and 1.0% and 0.4% and 2.2% and 1.1% and 0.6% and 0.5% | concentration of human sIL2R in serum, mean (ATL tumor cells (S-YU) [3]; treated NOG mice 1-8, ELISA): 84500 pg/mL | concentration of human sIL2R in serum, median (ATL tumor cells (S-YU) [3]; treated NOG mice 1-8, ELISA): 84900 pg/mL | concentration of human sIL2R in serum, range (ATL tumor cells (S-YU) [3]; treated NOG mice 1-8, ELISA): 69.0-97.4 ×10^3 pg/mL
